Reference: patent publication US7723068B2, “Gene cluster involved in safracin biosynthesis and its uses for genetic engineering” (PharmaMar, S.A., priority 2002, dated 2010)

How the values were obtained:
[1] = different tumor cell lines; background; cited from earlier work
[2] = Biological Activities of natural precursors (test not specified)
[3] = Antibacterial and antitumoral activities, general statements; conditions: compared with safracin A / safracin B
[4] = test system: LOVO; conditions: Colon
[5] = test system: LOVO-DOX; assay: cells; conditions: for GI50: read-out: GI50 LOVO-DOX; for CC50: read-out: LC50 LOVO-DOX
[6] = test system: K-562; assay: cells; conditions: Homo sapiens; for GI50: K562, read-out: GI50 K-562; for CC50: K562, read-out: LC50 K-562
[7] = test system: PROTEIN synthesis; assay: Secondary Screening, Macromolecules Synthesis PROTEIN; type: cell-based; conditions: Secondary Evaluation
[8] = test system: HELA-APL; assay: cells; conditions: for GI50: read-out: GI50 HELA-APL; for CC50: read-out: LC50 HELA-APL
[9] = test system: DU-145; assay: cells; conditions: Homo sapiens; for GI50: DU-145, read-out: GI50 DU-145; for CC50: DU-145, read-out: LC50 DU-145
[10] = test system: SK-BR3; conditions: Breast
[11] = test system: SK-MEL-28; assay: cells; conditions: Homo sapiens; for GI50: SK-MEL-28, read-out: GI50 SK-MEL-28; for CC50: SK-MEL-28, read-out: LC50 SK-MEL-28
[12] = test system: LN-caP; assay: cells; conditions: Homo sapiens, LNCaP; for GI50: read-out: GI50 LN-caP; for CC50: read-out: LC50 LN-caP
[13] = test system: Apoptosis (NUCLEOSOMES); assay: Secondary Screening, Apoptosis NUCLEOSOMES; type: cell-based; conditions: Secondary Evaluation
[14] = test system: IGROV-ET; assay: cells; conditions: for GI50: read-out: GI50 IGROV-ET; for CC50: read-out: LC50 IGROV-ET
[15] = test system: HT29; assay: cells; conditions: Homo sapiens; for GI50: HT-29, read-out: GI50 HT29; for CC50: HT-29, read-out: LC50 HT29
[16] = test system: IGROV; assay: cells; conditions: for GI50: read-out: GI50 IGROV; for CC50: read-out: LC50 IGROV
[17] = test system: LOVO; assay: cells; conditions: Homo sapiens; for GI50: read-out: GI50 LOVO; for CC50: read-out: LC50 LOVO
[18] = test system: A549; conditions: NSCL
[19] = test system: SK-MEL-28; conditions: Melanoma
[20] = test system: SK-BR3; assay: cells; conditions: Homo sapiens; for GI50: SK-BR-3, read-out: GI50 SK-BR3; for CC50: SK-BR-3, read-out: LC50 SK-BR3
[21] = test system: A549; assay: cells; conditions: Homo sapiens; for GI50: A549, read-out: GI50 A549; for CC50: A549, read-out: LC50 A549
[22] = test system: DNA synthesis; assay: Secondary Screening, Macromolecules Synthesis DNA; type: cell-based; conditions: Secondary Evaluation
[23] = test system: K-562; conditions: Leukemia
[24] = test system: RNA synthesis; assay: Secondary Screening, Macromolecules Synthesis RNA; type: cell-based; conditions: Secondary Evaluation
[25] = test system: IGROV-ET; conditions: Ovary
[26] = test system: LN-caP; conditions: Prostate
[27] = test system: IGROV; conditions: Ovary
[28] = target: DNA; assay: Secondary Screening, DNA Binding GEL; conditions: Secondary Evaluation
[29] = test system: HELA; conditions: Cervix
[30] = test system: DU-145; conditions: Prostate
[31] = test system: HELA; assay: cells; conditions: Homo sapiens; for GI50: read-out: GI50 HELA; for CC50: read-out: LC50 HELA
[32] = test system: Bacillus subtilis; assay: Antimicrobial activity on solid medium, disk; type: cell-based; conditions: Bacillus subtilis, 10 μg/disk (6 mm diameter)
Protocol: Antimicrobial activity: On solid medium Bacillus subtilis. 10 μg/disk (6 mm diameter): 10 mm inhibition zone Spectroscopic Data: […]

[33] = test system: HT29; conditions: Colon
[34] = test system: PANC1; conditions: Pancreas
[35] = test system: PANC1; assay: cells; conditions: Homo sapiens; for GI50: PANC-1, read-out: GI50 PANC1; for CC50: PANC-1, read-out: LC50 PANC1
[36] = test system: HELA-APL; conditions: Cervix
[37] = test system: LOVO-DOX; conditions: Colon

COC1=C(C)C(=O)C2=C(C1=O)[C@H](CNC(=O)[C@H](C)N)N1[C@@H](O)[C@H]3Cc4cc(C)c(OC)c(O)c4[C@@H]([C@@H]1C2)N3C [Safracin B]
antitumor and antibacterial activity (in words) [1]: possess antitumor activity in addition to antibacterial activity

COc1c(C)cc(C[C@H](N)C(=O)O)cc1O [Safracin P-2, 3-hydroxy-5-methyl-O-methyltyrosine]
Biological Activities [2]: NO ACTIVE

COC1=C(C)C(=O)C2=C(C1=O)[C@H](CNC(=O)[C@H](C)N)N1C[C@@H]3Cc4cc(C)c(OC)c(O)c4[C@H]([C@@H]1C2)N3C [Safracin A, reference compound]
antibacterial and antitumoral activities (in words) [3]: less antibiotic and antitumoral activity
antitumor and antibacterial activity (in words) [1]: possess antitumor activity in addition to antibacterial activity

CCOC1=C(C)C(=O)C2=C(C1=O)C(CNC(=O)C(C)N)N1C(O)C3Cc4cc(C)c(OCC)c(O)c4C(C1C2)N3C (centres unmarked) [Safracin B (OEt)]
TGI LOVO [4]: 1.09 µM
GI50 [5]: 2.09 µM
CC50 [5]: > 17.6 µM
GI50 [6]: 0.0397 µM
CC50 [6]: 3.69 µM
IC50 [7]: > 17.6 µM
GI50 [8]: 0.077 µM
CC50 [8]: 0.976 µM
GI50 [9]: 0.401 µM
CC50 [9]: 16 µM
TGI SK-BR3 [10]: 0.116 µM
GI50 [11]: 0.169 µM
CC50 [11]: 1.13 µM
GI50 [12]: 0.0484 µM
CC50 [12]: 0.828 µM
IC50 [13]: 0.0528 µM
GI50 [14]: 0.682 µM
CC50 [14]: 6.37 µM
GI50 [15]: 0.244 µM
CC50 [15]: > 17.6 µM
GI50 [16]: 0.0406 µM
CC50 [16]: 4.27 µM
GI50 [17]: 0.443 µM
CC50 [17]: > 17.6 µM
TGI A549 [18]: 1.16 µM
TGI SK-MEL-28 [19]: 0.44 µM
GI50 [20]: 0.0482 µM
CC50 [20]: 1.02 µM
GI50 [21]: 0.501 µM
CC50 [21]: 5.66 µM
IC50 [22]: 1.76 µM
TGI K-562 [23]: 0.108 µM
IC50 [24]: 0.176 µM
TGI IGROV-ET [25]: 1.19 µM
TGI LN-caP [26]: >17.6 µM
TGI IGROV [27]: 0.0997 µM
IC50 [28]: 17.6 µM
TGI HELA [29]: 0.315 µM
TGI DU-145 [30]: 1.01 µM
antibacterial and antitumoral activities (in words) [3]: as potent as the activities of safracin A and safracin B, respectively
GI50 [31]: 0.0892 µM
CC50 [31]: 1.35 µM
zone of inhibition at 10 µg/disc [32]: 17.5 mm
TGI HT29 [33]: 1.39 µM
TGI PANC1 [34]: 2.06 µM
GI50 [35]: 0.649 µM
CC50 [35]: 13.5 µM
TGI HELA-APL [36]: 0.274 µM
TGI LOVO-DOX [37]: 9.88 µM

COC1=C(C)C(=O)C2=C(C1=O)C(CNC(=O)C(C)N)N1CC3Cc4cc(C)c(OC)c(O)c4C(N3)C1C2 (centres unmarked) [Safracin E]
TGI LOVO [4]: >19.6 µM
GI50 [5]: 5.07 µM
CC50 [5]: 17.5 µM
GI50 [6]: 4.25 µM
CC50 [6]: 15.9 µM
IC50 [7]: 15.7 µM
GI50 [8]: 4.03 µM
CC50 [8]: 13 µM
GI50 [9]: 8.34 µM
CC50 [9]: > 19.6 µM
TGI SK-BR3 [10]: 9.24 µM
GI50 [11]: 3.94 µM
CC50 [11]: 12.2 µM
GI50 [12]: 3.86 µM
CC50 [12]: 15.4 µM
GI50 [14]: 4.54 µM
CC50 [14]: 14.9 µM
GI50 [15]: 7.89 µM
CC50 [15]: > 19.6 µM
GI50 [16]: 4.5 µM
CC50 [16]: 17.4 µM
GI50 [17]: 7.15 µM
CC50 [17]: > 19.6 µM
TGI A549 [18]: >19.6 µM
TGI SK-MEL-28 [19]: 6.93 µM
GI50 [20]: 5.05 µM
CC50 [20]: 17 µM
GI50 [21]: 19.6 µM
CC50 [21]: > 19.6 µM
IC50 [22]: > 19.6 µM
TGI K-562 [23]: 8.21 µM
TGI IGROV-ET [25]: 8.25 µM
TGI LN-caP [26]: 7.7 µM
TGI IGROV [27]: 8.85 µM
TGI HELA [29]: 7.29 µM
TGI DU-145 [30]: 19.6 µM
antibacterial and antitumoral activities (in words) [3]: the same antibacterial and antitumoral activities as safracin B and safracin A, respectively
GI50 [31]: 4.15 µM
CC50 [31]: 12.8 µM
zone of inhibition at 10 µg/disc [32]: 9.5 mm
TGI HT29 [33]: 19.6 µM
TGI PANC1 [34]: 14.7 µM
GI50 [35]: 6.05 µM
CC50 [35]: > 19.6 µM
TGI HELA-APL [36]: 7.25 µM
TGI LOVO-DOX [37]: 9.44 µM

COC1=C(C)C(=O)C2=C(C1=O)C(CNC(=O)C(C)N)N1C(O)C3Cc4cc(C)c(OC)c(O)c4C(N3)C1C2 (centres unmarked) [Safracin D]
TGI LOVO [4]: 18.2 µM
GI50 [5]: 4.75 µM
CC50 [5]: 16.5 µM
GI50 [6]: 0.604 µM
CC50 [6]: 3.78 µM
IC50 [7]: 19 µM
GI50 [8]: 2.28 µM
CC50 [8]: 12.1 µM
GI50 [9]: 5.22 µM
CC50 [9]: 19 µM
TGI SK-BR3 [10]: 7.82 µM
GI50 [11]: 3.51 µM
CC50 [11]: 11 µM
GI50 [12]: 1.54 µM
CC50 [12]: 9.78 µM
IC50 [13]: 2.85 µM
GI50 [14]: 1.33 µM
CC50 [14]: 9.15 µM
GI50 [15]: 4.33 µM
CC50 [15]: > 19 µM
GI50 [16]: 2.68 µM
CC50 [16]: 13.5 µM
GI50 [17]: 6.99 µM
CC50 [17]: > 19 µM
TGI A549 [18]: 10.7 µM
TGI SK-MEL-28 [19]: 6.21 µM
GI50 [20]: 4.71 µM
CC50 [20]: 13 µM
GI50 [21]: 6.04 µM
CC50 [21]: 18.8 µM
IC50 [22]: 15.2 µM
TGI K-562 [23]: 1.16 µM
IC50 [24]: 3.8 µM
TGI IGROV-ET [25]: 3.34 µM
TGI LN-caP [26]: 4.12 µM
TGI IGROV [27]: 6.02 µM
IC50 [28]: 6.65 µM
TGI HELA [29]: 6.68 µM
TGI DU-145 [30]: 9.99 µM
antibacterial and antitumoral activities (in words) [3]: the same antibacterial and antitumoral activities as safracin B and safracin A, respectively
GI50 [31]: 3.76 µM
CC50 [31]: 11.9 µM
zone of inhibition at 10 µg/disc [32]: 15 mm
TGI HT29 [33]: 17.9 µM
TGI PANC1 [34]: 11 µM
GI50 [35]: 4.77 µM
CC50 [35]: > 19 µM
TGI HELA-APL [36]: 5.24 µM
TGI LOVO-DOX [37]: 8.85 µM

COc1ccc(C[C@H](N)C(=O)O)cc1C [Safracin P-14, 3-methyl-O-methyltyrosine]
Biological Activities [2]: NO ACTIVE
